Data: patent publication US9540381B2, “Anti-angiogenesis compound, intermediate and use thereof” (Guangzhou KangRui Biological Pharmaceutical Technology Co., …, priority 2013, dated 2017)
“Also recorded” adds a separate entry of the source.

Key:
PI3K-α = molecular target: T1, PI3K-α (Homo sapiens, UniProt P42336); experiment: Inhibition specificity, PI3K-α (ADP-Glo); assay type: biochemical; conditions: 5000 nM, average of two tests; read-out: Average Inhibition Rate (%) PI3K-α
T1 construct: purchased INVITROGEN
T1 sequence (P42336 whole entry, species assumed): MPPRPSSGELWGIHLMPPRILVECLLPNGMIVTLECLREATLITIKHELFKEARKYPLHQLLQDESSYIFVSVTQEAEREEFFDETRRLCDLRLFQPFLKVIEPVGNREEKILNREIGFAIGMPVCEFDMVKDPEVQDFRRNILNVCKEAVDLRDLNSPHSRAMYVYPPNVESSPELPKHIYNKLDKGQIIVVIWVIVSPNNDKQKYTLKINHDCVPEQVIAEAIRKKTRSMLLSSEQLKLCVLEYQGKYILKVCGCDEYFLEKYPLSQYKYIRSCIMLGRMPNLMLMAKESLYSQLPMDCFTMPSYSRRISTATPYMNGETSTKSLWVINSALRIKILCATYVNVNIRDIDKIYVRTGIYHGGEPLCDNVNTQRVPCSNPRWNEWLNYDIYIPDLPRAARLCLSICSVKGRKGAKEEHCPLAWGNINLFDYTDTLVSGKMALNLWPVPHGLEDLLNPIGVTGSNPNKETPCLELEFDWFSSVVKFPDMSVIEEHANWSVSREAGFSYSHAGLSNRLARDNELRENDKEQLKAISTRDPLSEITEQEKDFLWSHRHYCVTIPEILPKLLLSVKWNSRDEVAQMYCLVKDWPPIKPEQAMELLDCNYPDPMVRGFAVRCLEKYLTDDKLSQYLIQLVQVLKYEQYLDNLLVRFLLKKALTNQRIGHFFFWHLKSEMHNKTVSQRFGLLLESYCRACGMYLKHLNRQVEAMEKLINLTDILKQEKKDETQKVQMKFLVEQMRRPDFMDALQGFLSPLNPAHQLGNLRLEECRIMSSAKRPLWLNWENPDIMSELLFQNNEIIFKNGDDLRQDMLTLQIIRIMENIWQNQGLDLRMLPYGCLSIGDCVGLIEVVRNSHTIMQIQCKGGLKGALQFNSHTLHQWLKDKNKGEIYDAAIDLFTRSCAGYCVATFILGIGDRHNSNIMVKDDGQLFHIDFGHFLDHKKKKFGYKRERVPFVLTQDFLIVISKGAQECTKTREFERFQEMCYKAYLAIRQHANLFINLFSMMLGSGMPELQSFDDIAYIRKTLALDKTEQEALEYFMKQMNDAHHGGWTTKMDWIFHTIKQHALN
T1 sequence (P27986 whole entry partner, species assumed): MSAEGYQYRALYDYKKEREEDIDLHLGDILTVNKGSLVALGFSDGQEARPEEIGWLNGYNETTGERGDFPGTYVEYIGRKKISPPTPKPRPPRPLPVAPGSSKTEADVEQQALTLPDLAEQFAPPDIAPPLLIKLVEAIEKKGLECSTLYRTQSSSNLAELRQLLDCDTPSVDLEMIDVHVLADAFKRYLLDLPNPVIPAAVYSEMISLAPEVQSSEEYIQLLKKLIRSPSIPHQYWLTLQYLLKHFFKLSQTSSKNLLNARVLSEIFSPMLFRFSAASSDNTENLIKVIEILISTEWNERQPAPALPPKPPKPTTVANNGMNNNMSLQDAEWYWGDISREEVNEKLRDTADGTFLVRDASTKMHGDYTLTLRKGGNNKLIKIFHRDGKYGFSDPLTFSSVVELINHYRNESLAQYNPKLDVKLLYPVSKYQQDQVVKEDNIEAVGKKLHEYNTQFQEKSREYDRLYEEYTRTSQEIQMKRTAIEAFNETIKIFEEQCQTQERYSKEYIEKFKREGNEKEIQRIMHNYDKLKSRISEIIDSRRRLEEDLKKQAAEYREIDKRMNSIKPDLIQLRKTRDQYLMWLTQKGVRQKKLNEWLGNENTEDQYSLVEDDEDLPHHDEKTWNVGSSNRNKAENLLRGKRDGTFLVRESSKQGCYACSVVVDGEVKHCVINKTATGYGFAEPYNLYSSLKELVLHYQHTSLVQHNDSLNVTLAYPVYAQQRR

KDR (VEGFR2) = molecular target: T2, KDR (VEGFR2) (Homo sapiens, UniProt P35968); experiment: Inhibition specificity, KDR; assay type: biochemical; conditions: 5000 nM, average of two tests; for inhibition at 5 µM: read-out: Average Inhibition Rate (%) KDR
T2 construct: purchased Invitrogen
T2 sequence (P35968 20-1356, species assumed): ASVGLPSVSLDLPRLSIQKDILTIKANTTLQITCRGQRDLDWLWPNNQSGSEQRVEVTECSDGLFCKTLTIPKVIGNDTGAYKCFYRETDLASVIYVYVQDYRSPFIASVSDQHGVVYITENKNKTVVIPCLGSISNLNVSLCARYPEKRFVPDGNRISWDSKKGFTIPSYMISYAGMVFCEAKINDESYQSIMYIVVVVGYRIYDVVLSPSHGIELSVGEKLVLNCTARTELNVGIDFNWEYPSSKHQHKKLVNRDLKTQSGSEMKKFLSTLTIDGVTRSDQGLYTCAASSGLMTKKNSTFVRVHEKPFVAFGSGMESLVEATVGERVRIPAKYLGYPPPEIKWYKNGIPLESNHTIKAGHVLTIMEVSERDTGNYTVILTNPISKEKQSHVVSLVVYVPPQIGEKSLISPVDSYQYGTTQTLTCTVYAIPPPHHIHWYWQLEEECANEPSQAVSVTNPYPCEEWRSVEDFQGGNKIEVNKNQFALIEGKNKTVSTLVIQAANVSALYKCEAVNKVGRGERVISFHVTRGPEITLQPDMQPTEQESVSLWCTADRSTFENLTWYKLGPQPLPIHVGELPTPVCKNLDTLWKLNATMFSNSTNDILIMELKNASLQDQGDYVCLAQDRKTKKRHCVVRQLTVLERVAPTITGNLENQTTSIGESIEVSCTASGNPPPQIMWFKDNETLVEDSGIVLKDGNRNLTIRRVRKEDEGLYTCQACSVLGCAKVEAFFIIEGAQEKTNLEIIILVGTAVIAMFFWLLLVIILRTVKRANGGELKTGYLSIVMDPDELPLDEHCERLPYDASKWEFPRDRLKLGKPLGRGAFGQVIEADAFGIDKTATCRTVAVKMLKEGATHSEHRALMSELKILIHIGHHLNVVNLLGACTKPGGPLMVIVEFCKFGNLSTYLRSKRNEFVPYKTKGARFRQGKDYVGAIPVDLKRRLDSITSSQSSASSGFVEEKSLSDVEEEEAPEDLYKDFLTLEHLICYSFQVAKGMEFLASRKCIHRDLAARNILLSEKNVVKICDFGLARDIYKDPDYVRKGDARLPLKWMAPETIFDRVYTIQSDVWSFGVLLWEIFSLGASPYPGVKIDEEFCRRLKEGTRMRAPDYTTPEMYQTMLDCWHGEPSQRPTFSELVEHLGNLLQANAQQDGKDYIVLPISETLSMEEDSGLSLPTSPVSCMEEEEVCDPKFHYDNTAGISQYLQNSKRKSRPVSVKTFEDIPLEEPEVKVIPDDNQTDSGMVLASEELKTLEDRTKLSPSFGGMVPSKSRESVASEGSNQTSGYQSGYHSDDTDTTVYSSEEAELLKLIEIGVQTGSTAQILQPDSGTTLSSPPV

DMPK = molecular target: T3, DMPK (Homo sapiens, UniProt Q09013); experiment: Inhibition specificity, DMPK; assay type: biochemical; conditions: 5000 nM, average of two tests; read-out: Average Inhibition Rate (%) DMPK
T3 construct: purchased INVITROGEN
T3 sequence (Q09013 whole entry, species assumed): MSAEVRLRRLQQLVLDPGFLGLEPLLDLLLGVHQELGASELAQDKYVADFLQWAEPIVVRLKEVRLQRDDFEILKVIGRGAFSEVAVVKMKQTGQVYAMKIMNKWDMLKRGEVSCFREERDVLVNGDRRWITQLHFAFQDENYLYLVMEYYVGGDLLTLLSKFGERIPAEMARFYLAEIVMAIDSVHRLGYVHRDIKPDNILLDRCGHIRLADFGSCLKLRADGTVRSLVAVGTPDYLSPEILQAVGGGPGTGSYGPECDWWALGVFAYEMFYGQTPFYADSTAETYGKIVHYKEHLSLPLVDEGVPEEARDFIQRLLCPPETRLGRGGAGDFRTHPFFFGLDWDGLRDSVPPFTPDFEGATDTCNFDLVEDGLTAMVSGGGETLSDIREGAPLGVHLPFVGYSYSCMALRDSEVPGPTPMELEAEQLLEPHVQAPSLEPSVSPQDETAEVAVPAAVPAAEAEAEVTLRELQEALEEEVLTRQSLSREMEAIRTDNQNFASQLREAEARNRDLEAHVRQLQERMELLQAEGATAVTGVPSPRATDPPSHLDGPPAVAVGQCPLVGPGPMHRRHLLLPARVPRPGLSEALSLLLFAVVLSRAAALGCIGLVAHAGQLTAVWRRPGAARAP

PKC-α = molecular target: T4, PKC-α (Homo sapiens, UniProt P17252); experiment: Inhibition specificity, PKC-α; assay type: biochemical; conditions: 5000 nM, average of two tests; read-out: Average Inhibition Rate (%) PKC-α
T4 construct: purchased INVITROGEN

VEGFR2 = molecular target: T5, VEGFR2 (Homo sapiens, UniProt P35968); experiment: In vitro inhibition test on VEGFR2 in HUVECs (anti-phosphorylated VEGFR2 blot); assay type: cell-based; conditions: 10 nM, 100 nM and 1 μM, 50 ng/ml VEGF
T5 construct: endogenous in cells; host or cells: primary HUVECs P3-P5
T5 sequence (P35968 20-1356): as the sequence (P35968 20-1356, species assumed) above
Description: The experimental method of detecting the inhibition of the compounds of the present invention on VEGFR2 kinase is as follows:
1) The primary cultured human umbilical vein endothelial cells (HUVECs) P3-P5 were transferred to 6 well plate, 2×10^5 cells per well;
2) compounds 2-1, 2-2 and 2-4 of the present invention (the concentrations are 10 nM, 100 nM and 1 μM for each compound) were added when the cells grow to 70-80%, VEGF was a control, incubation for 30 min;
3) 50 ng/ml VEGF (cell Signaling company, US) was added, stimulating for 10 min;
4) nondenature lysis buffer was added to terminate the reaction, and cell lysis buffer was collected to carry out protein quantification;
5) SDS-PAGE electrophoresis, transfer to nitrocellulose membrane, the membrane was cut off and sealed in phosphate tween buffer, TTBS buffer (Tris-buffered saline 0.01% Tween 20, cell Signaling company, US, PH8.0) formulated from 5% skimmed milk for 2 hours; 6) wash the membrane, seal at 4° C. overnight by use of an anti-phosphorylated VEGFR2 antibody (1:1000 dilution, cell Signaling company, US); 7) on the second day after washing membrane, horse radish peroxidase marked goat anti-rabbit second antibody (cell Signaling company, US) was incubated with the membrane at room temperature for 1 hour; 8) develop with chemiluminescence kit (Millipore company) after washing membrane, and take photos.

PDGFR-β = molecular target: T6, PDGFR-β (Homo sapiens, UniProt P09619); experiment: Kinase inhibition dosage effect, PDGFR-β; assay type: biochemical; conditions: for IC50: [ATP] 30 μM, 3 hr; for Hill PDGFR-β: dose-effect curve fit
T6 construct: purchased Upstate
T6 sequence (P09619 33-1106, species assumed): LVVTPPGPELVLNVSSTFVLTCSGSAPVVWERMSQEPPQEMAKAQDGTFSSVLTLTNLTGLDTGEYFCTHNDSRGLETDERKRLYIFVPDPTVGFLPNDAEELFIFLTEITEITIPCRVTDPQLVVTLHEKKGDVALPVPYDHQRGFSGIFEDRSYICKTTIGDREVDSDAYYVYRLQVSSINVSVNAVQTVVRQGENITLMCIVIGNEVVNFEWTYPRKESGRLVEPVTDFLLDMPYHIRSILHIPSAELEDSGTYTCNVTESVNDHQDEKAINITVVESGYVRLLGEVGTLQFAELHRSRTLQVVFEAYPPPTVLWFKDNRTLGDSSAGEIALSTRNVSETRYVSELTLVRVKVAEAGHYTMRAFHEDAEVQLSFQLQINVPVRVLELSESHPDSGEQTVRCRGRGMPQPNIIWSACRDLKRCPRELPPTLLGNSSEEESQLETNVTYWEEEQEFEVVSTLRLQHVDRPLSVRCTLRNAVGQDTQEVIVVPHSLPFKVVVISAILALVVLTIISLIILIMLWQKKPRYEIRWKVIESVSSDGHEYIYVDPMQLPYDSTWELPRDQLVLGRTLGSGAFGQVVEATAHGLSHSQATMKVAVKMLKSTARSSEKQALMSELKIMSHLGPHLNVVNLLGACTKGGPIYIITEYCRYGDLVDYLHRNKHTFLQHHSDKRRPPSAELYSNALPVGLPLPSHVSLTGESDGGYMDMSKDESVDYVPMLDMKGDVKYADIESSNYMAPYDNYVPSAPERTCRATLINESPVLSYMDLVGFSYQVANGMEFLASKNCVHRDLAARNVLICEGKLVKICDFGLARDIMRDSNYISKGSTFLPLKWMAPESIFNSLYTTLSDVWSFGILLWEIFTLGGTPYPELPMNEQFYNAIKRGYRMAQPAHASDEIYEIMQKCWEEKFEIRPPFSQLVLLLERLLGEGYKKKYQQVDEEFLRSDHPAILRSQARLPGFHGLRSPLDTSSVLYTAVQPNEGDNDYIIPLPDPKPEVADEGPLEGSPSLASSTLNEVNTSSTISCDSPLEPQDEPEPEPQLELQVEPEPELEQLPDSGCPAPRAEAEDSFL

corneal angiogenesis = experiment: Mice corneal chemical burn model; conditions: 100 uM subconjunctival injection then drops twice a day, 7 days
choroidal angiogenesis = experiment: Laser-induced choroidal angiogenesis (CNV) animal model; assay type: in vivo, c57/BL mice; conditions: 1 uM injected into the eye after laser, 5 days
Description: The […]57/BL (Jax Lab, US), and the experiment is conducted on laser-induced Choroidal Angiogenesis (CNV) animal model. This model is a widely used animal model used for studying the influence of a medicament on CNV development of wet macular degeneration. […] Only the laser points, which were observed as bubble indicating the fracture of Bruch membrane, were considered to be studied. Inject immediately after laser implementation: the right eye was injected 1 uM compound 2-2, and the left eye was injected PBS having the same volume as the medicament as a control. Kill the animal 5 days after injection and obtain the eyeball. After removing the anterior segment, vitreous body and retina, prepare flat mounts of choroid and meanwhile dye with isolectin. Take photos by Zeiss fluorescence microscope system and measure CNV area.

| Structure (SMILES) | inhibition at 5 µM (PI3K-α) [%] | inhibition at 5 µM (KDR (VEGFR2)) [%] | inhibition at 5 µM (DMPK) [%] | inhibition at 5 µM (PKC-α) [%] | inhibition of VEGFR2 (in words, FIG. 8) (VEGFR2) | inhibition activity on PDGFR-β (in words) (PDGFR-β) | IC50 (PDGFR-β) [µM] | Inhibition Rate on PDGFR-β (%) (PDGFR-β; concentration 0.0002823 (uM)) | Inhibition Rate on PDGFR-β (%) (PDGFR-β; concentration 0.0008468 (uM)) | Inhibition Rate on PDGFR-β (%) (PDGFR-β; concentration 0.0025403 (uM)) | Inhibition Rate on PDGFR-β (%) (PDGFR-β; concentration 0.0076208 (uM)) | Inhibition Rate on PDGFR-β (%) (PDGFR-β; concentration 0.0228624 (uM)) | Inhibition Rate on PDGFR-β (%) (PDGFR-β; concentration 0.0685871 (uM)) | Inhibition Rate on PDGFR-β (%) (PDGFR-β; concentration 0.2057613 (uM)) | Inhibition Rate on PDGFR-β (%) (PDGFR-β; concentration 0.6172840 (uM)) | Inhibition Rate on PDGFR-β (%) (PDGFR-β; concentration 1.8518519 (uM)) | Inhibition Rate on PDGFR-β (%) (PDGFR-β; concentration 5.5555556 (uM)) | Inhibition Rate on PDGFR-β (%) (PDGFR-β; concentration 16.6666667 (uM)) | Inhibition Rate on PDGFR-β (%) (PDGFR-β; concentration 50 (uM)) | Hill PDGFR-β (PDGFR-β) | further results |
| --- | --- | --- | --- | --- | --- | --- | --- | --- | --- | --- | --- | --- | --- | --- | --- | --- | --- | --- | --- | --- | --- |
| Nc1cc(Oc2ccc3c(C(=O)Nc4cccc(C(F)(F)F)c4)cccc3n2)ncn1 [Compound 2-1] | 6.78 | > 97 | 1.53 | -0.01 | can inhibit VEGFR2 | good inhibition activity | 1.94 | 0.72 | 2.69 | 0.80 | 1.43 | 7.89 | 10.09 | 12.85 | 23.86 | 46.85 | 73.86 | 86.35 | 85.78 | 1.09 |  |
| Nc1nccc(Oc2ccc3c(C(=O)Nc4cccc(C(F)(F)F)c4)cccc3n2)n1 [Compound 2-2] | -7.1 | 100 | 4.5 | 2.63 | can inhibit VEGFR2 | good inhibition activity | 0.15 | 0.62 | 0.49 | −0.84 | 2.85 | 15.13 | 34.21 | 55.90 | 78.29 | 91.57 | 96.43 | 97.95 | 98.80 | 0.92 | effect on corneal angiogenesis and bleeding (in words, FIG. 11) (corneal angiogenesis): obviously reduces angiogenesis and bleeding; Average Inhibition Rate (%) KDR (KDR (VEGFR2); 5 µM): 100.1%; inhibition of choroidal angiogenesis (in words, FIG. 9) (choroidal angiogenesis): could obviously inhibit the choroidal angiogenesis; also recorded: obviously inhibiting choroidal angiogenesis |
